Test results as given in ChEMBL document CHEMBL4842327, “Cyclic mimetics of kinase-inhibitory region of Suppressors of Cytokine Signaling 1: Progress toward novel anti-inflammatory therapeutics” (Eur J Med Chem, 2021).
The source made the active and inactive calls. No cut-off for these calls is given here. Peptide text beside a SMILES is read from it. * marks the point of attachment. Acm = CC(=O)NC*

What was measured:
[1] = Stability of the compound in 25% fetal calf serum assessed as enzyme-mediated compound degradation at 80 uM measured after 24 hrs by RP-HPLC analysis; format: ADME, cell-free, Bos taurus; conditions: cattle, read-out: Drug degradation
[2] = Cytotoxicity against mouse VSMC cells assessed as reduction in cell proliferation at 25 uM incubated for 24 hrs in DMEM medium containing 10% FBS by MTT assay; format: cell-based
[3] = Cytotoxicity against mouse VSMC cells assessed as reduction in cell viability at 25 uM incubated for 6 to 24 hrs in DMEM medium containing 0.5% FBS by MTT assay; format: cell-based; conditions: time 6-24 hrs
VSMC [4] = test: Antioxidant activity in IFNgamma/IL6-stimulated mouse VSMC cells assessed as reduction in Nox4 mRNA expression by quantitative real time PCR analysis; format: functional, cell-based
[5] = biological target: Tyrosine-protein kinase JAK2 (Mus musculus) (UniProt Q62120); test: Inhibition of JAK2 in mouse VSMC cells assessed as reduction in IFNgamma/IL6 induced STAT1 phosphorylation at 5 uM treated for 90 mins prior to cytokine stimulation and measured after 1 hr by DAPI staining based immunofluorescence confocal microscopy; format: cell-based; conditions: time 150.0 min
Chain of Tyrosine-protein kinase JAK2 (Mus musculus) (Q62120 whole entry): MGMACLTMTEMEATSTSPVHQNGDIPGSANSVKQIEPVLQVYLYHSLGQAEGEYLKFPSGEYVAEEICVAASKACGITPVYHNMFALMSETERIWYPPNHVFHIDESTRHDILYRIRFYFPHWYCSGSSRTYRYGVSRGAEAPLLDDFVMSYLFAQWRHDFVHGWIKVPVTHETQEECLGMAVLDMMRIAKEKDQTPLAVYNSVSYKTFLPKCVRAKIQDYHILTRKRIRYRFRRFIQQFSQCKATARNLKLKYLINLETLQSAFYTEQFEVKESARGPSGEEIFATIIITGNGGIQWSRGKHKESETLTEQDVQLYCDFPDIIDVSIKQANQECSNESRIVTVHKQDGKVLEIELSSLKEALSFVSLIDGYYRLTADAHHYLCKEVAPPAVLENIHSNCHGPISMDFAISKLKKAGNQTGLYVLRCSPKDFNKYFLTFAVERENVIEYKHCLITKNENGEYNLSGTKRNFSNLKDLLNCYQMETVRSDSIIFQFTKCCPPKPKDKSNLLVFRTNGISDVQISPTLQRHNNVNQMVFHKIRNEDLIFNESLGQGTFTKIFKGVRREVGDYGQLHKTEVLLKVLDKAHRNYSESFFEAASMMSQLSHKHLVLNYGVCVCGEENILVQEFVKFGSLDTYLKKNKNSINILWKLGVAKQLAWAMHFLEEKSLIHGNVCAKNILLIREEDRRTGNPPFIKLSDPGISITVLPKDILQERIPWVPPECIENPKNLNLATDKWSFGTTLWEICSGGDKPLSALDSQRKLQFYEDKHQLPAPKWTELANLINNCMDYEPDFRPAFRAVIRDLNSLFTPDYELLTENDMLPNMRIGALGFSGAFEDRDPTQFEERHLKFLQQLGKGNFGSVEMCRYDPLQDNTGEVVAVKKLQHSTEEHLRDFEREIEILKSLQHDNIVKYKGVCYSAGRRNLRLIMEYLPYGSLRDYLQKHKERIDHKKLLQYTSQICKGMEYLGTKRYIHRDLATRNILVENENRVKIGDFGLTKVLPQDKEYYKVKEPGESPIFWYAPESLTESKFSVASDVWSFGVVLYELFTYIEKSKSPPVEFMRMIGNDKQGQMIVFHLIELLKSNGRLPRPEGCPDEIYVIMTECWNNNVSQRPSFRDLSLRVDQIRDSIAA

[6] = biological target: Tyrosine-protein kinase JAK2 (Mus musculus) (UniProt Q62120); test: Inhibition of JAK2 in mouse RAW264.7 cells assessed as reduction in IFNgamma/IL6-induced Ccl5 mRNA expression by quantitative real time PCR analysis; format: cell-based
[7] = biological target: Tyrosine-protein kinase JAK2 (Mus musculus) (UniProt Q62120); test: Inhibition of JAK2 in mouse VSMC cells assessed as reduction in IFNgamma/IL6-induced Ccl2 mRNA expression by quantitative real time PCR analysis; format: cell-based
VSMC [8] = test: Antioxidant activity in IFNgamma/IL6-stimulated mouse VSMC cells assessed as upregulation of catalase mRNA expression by quantitative real time PCR analysis; format: functional, cell-based
[9] = biological target: Tyrosine-protein kinase JAK2 (Mus musculus) (UniProt Q62120); test: Inhibition of JAK2 in mouse RAW264.7 cells assessed as reduction in IFNgamma/IL6-induced Cxcl10 mRNA expression by quantitative real time PCR analysis; format: cell-based
[10] = biological target: Tyrosine-protein kinase JAK2 (Mus musculus) (UniProt Q62120); test: Inhibition of JAK2 in mouse VSMC cells assessed as reduction in IFNgamma/IL6- induced STAT1 phosphorylation by Western blot analysis; format: cell-based
[11] = biological target: Tyrosine-protein kinase JAK2 (Mus musculus) (UniProt Q62120); test: Inhibition of JAK2 in mouse RAW264.7 cells assessed as reduction in IFNgamma/IL6-induced Ccl2 mRNA expression by quantitative real time PCR analysis; format: cell-based
[12] = biological target: Tyrosine-protein kinase JAK2 (Mus musculus) (UniProt Q62120); test: Inhibition of JAK2 in mouse VSMC cells assessed as reduction in IFN-gamma/IL6 induced STAT1 nuclear translocation at 5 uM treated for 90 mins prior to cytokine stimulation and measured after 1 hr by DAPI staining based immunofluorescence confocal microscopy; format: cell-based; conditions: time 150.0 min
[13] = biological target: Tyrosine-protein kinase JAK2 (Mus musculus) (UniProt Q62120); test: Inhibition of JAK2 in mouse VSMC cells assessed as reduction in IFNgamma/IL6-induced Ccl5 mRNA expression by quantitative real time PCR analysis; format: cell-based
VSMC [14] = test: Antioxidant activity in IFNgamma/IL6-stimulated mouse VSMC cells assessed as reduction in Nox1 mRNA expression by quantitative real time PCR analysis; format: functional, cell-based
[15] = biological target: Tyrosine-protein kinase JAK2 (Mus musculus) (UniProt Q62120); test: Inhibition of JAK2 in mouse VSMC cells assessed as reduction in IFNgamma/IL6-induced Cxcl10 mRNA expression by quantitative real time PCR analysis; format: cell-based
[16] = biological target: Tyrosine-protein kinase JAK2 (Homo sapiens, UniProt O60674); test: Binding affinity to N-terminal His-tagged human JAK2 catalytic domain (826 to 1132 residues) expressed in baculovirus-infected Sf21 cells by Microscale thermophoresis analysis
Chain of Tyrosine-protein kinase JAK2 (O60674 whole entry, the tested form may be a part): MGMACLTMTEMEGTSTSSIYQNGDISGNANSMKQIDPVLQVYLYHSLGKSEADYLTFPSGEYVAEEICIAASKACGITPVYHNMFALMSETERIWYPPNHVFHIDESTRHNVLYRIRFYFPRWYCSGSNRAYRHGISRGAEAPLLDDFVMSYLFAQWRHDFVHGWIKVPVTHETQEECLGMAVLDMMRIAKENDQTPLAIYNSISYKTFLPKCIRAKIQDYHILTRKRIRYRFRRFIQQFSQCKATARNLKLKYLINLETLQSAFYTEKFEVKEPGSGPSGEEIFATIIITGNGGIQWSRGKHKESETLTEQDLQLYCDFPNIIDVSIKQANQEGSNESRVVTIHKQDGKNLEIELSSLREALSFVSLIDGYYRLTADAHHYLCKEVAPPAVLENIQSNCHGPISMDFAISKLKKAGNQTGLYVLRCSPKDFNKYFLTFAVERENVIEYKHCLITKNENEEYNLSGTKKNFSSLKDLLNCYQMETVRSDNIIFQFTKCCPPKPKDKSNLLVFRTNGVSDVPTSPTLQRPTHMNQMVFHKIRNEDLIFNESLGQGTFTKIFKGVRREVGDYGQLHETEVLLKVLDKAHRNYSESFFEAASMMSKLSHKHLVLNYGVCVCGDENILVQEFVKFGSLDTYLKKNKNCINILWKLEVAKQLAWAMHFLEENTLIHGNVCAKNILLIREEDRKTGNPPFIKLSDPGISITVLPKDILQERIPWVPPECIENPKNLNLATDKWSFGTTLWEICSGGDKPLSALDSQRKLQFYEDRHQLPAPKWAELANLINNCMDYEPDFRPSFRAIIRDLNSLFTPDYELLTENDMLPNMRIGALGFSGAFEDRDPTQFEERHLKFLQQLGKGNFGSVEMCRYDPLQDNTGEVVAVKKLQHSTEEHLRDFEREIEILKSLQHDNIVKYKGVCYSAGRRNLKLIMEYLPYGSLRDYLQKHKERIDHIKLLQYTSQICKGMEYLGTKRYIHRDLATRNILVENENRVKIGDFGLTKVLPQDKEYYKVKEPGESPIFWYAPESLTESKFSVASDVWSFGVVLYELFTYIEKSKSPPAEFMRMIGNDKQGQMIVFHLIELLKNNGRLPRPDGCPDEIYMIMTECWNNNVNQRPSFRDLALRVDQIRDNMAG

[17] = biological target: Tyrosine-protein kinase JAK2 (Mus musculus) (UniProt Q62120); test: Inhibition of JAK2 in mouse VSMC cells assessed as reduction in IFNgamma/IL6-induced JAK2 phosphorylation by Western blot analysis; format: cell-based
VSMC [18] = test: Antioxidant activity in IFNgamma/IL6-stimulated mouse VSMC cells assessed as upregulation of Sod1 mRNA expression by quantitative real time PCR analysis; format: functional, cell-based
VSMC [19] = test: Inhibition of IFN-gamma/IL6-induced cell migration in mouse VSMC cells incubated for 45 hrs by scratch wound healing assay; format: functional, cell-based
RAW264.7 = test: Antioxidant activity in mouse RAW264.7 cells assessed as reduction in IFNgamma/IL6-induced intracellular superoxide generation by DHE staining based fluorescence confocal microscopy analysis; format: functional, cell-based
VSMC [20] = test: Antioxidant activity in mouse VSMC cells assessed as reduction in IFNgamma/IL6-induced intracellular superoxide generation by DHE staining based fluorescence confocal microscopy analysis; format: functional, cell-based
[21] = Stability of the compound in 25% fetal calf serum assessed as residual parent compound level at 80 uM measured after 42 hrs by RP-HPLC analysis; format: ADME, cell-free, Bos taurus; conditions: cattle, read-out: Stabilty

Row | metabolised at 24 h, 80 µM [1] [%] | inhibition [5] [%] | inhibition [6] | inhibition [7] | inhibition [9] | inhibition [10] | inhibition [11] | inhibition [12] [%] | inhibition [13] | inhibition [15] | Kd [16] [µM] | inhibition [17] | Structure (SMILES) | Activity [2] | Activity [3] | Activity (VSMC [4]) | Activity (VSMC [8]) | Activity (VSMC [14]) | Activity (VSMC [18]) | Activity (RAW264.7) | Activity (VSMC [20]) | further results
1 | 40 | – | – | – | – | – | – | – | – | – | – | – | CC(=O)NCSC[C@@H]1NC(=O)[C@H]([C@@H](C)O)NC(=O)[C@@H](NC(C)=O)CC(=O)NCCCC[C@@H](C(=O)N[C@@H](Cc2cnc[nH]2)C(N)=O)NC(=O)[C@H](CCCNC(=N)N)NC(=O)[C@H](Cc2ccccc2)NC(=O)[C@H]([C@@H](C)O)NC(=O)[C@H](CCC(N)=O)NC(=O)[C@H](CCCNC(=N)N)NC1=O | Non-Toxic | Non-Toxic | – | – | – | – | – | – | –
2 | – | 65 | Active | Active | Active | Active | Active | 65 | Active | Active | 44 | Active | CC(=O)NCSC[C@@H]1NC(=O)[C@H]([C@@H](C)O)NC(=O)[C@@H](NC(C)=O)CC(=O)NCCCC[C@@H](C(=O)NC(Cc2cnc[nH]2)C(N)=O)NC(=O)[C@@H](CCCNC(=N)N)NC(=O)[C@H](Cc2ccccc2)NC(=O)[C@H]([C@@H](C)O)NC(=O)[C@H](CCC(N)=O)NC(=O)[C@@H](CCCNC(=N)N)NC1=O (stereo not given in full) | – | – | Active | Active | Active | Active | Active | Active | inhibition (VSMC [19]): Active
3 | 50 | – | Active | Active | Active | Active | Active | – | Active | Active | – | Active | CC(=O)NCSC[C@H](NC(=O)[C@@H](NC(=O)[C@H](CC(=O)O)NC(C)=O)[C@@H](C)O)C(=O)N[C@@H](CCCNC(=N)N)C(=O)N[C@@H](CCC(N)=O)C(=O)N[C@H](C(=O)N[C@@H](Cc1ccccc1)C(=O)N[C@@H](CCCNC(=N)N)C(=O)N[C@@H](CO)C(=O)N[C@@H](Cc1cnc[nH]1)C(=O)O)[C@@H](C)O (Ac-DTC(Acm)RQTFRSH-OH) | Non-Toxic | Non-Toxic | Active | Active | Active | Active | Active | Active | –
4 | – | 65 | Active | Active | Active | Active | Active | 65 | Active | Active | 35 | Active | CC(=O)NCSC[C@@H]1NC(=O)[C@H]([C@@H](C)O)NC(=O)[C@H](NC(C)=O)CC(=O)NCCCC[C@@H](C(=O)NC(Cc2cnc[nH]2)C(N)=O)NC(=O)[C@@H](CCCNC(=N)N)NC(=O)[C@H](Cc2cccc3ccccc23)NC(=O)[C@H]([C@@H](C)O)NC(=O)[C@H](CCC(N)=O)NC(=O)[C@@H](CCCNC(=N)N)NC1=O (stereo not given in full) | – | – | Active | Active | Active | Active | Active | Active | inhibition (VSMC [19]): Active
5 | 20 | – | – | – | – | – | – | – | – | – | – | – | CC(=O)NCSC[C@@H]1NC(=O)[C@H]([C@@H](C)O)NC(=O)[C@@H](NC(C)=O)CC(=O)NCCCC[C@@H](C(=O)N[C@@H](Cc2cnc[nH]2)C(N)=O)NC(=O)[C@H](CCCNC(=N)N)NC(=O)[C@H](Cc2cccc3ccccc23)NC(=O)[C@H]([C@@H](C)O)NC(=O)[C@H](CCC(N)=O)NC(=O)[C@H](CCCNC(=N)N)NC1=O | Non-Toxic | Non-Toxic | – | – | – | – | – | – | remaining at 42 h, 80 µM [21]: 40%
